Data published in patent US4238472A, “Radioimmunoassay for chlorinated dibenzo-p-dioxins” (priority 1978, dated 1980).

Test system: antiserum GC-5
Test: Cross reactivity in chlorinated DBD radioimmunoassay, antiserum GC-5
Assay type: binding, rabbit
Details: not given
From the text: (§1) Since TCDD itself has no chemically reactive functional groups, a derivative was synthesized that retained most of the structural features of TCDD but with the addition of a reactive site. This derivative was coupled to an immunogenic protein carrier, such as bovine serum albumin, rabbit serum albumin, etc., so that animals would respond to it by producing an antiserum containing antibodies. A second compound was synthesized, still structurally similar to TCDD so that it would bind to the antibodies, but capable of being labeled with ^125 I for detectability at the picogram level. An amount of antiserum capable of binding about 20 pg of ^125 I-labeled dioxin derivative (hapten) is preincubated with the detergent emulsion of the sample extract (possibly containing TCDD). Then the mixture is incubated with the ^125 I-labeled derivative long enough for equilibrium binding to occur and form the hapten-antibody complex. A second antibody, namely, goat antibodies against rabbit gamma-globulin (i.e., goat anti-rabbit γ-globulin) are then added to precipitate the antibody ^125 I-labeled dioxin complex, and the amount of ^125 I in the precipitate is determined. The extent to which preincubation with the test material inhibits or decreases the amount of ^125 I precipitated relative to the amount precipitated in the absence of test material is a measure of the amount of chlorodibenzodioxin in the test sample.
(§2) Radioimmunoassay of small molecules requires some means of separating free hapten from antibody-bound hapten. The procedure used in the present invention, chosen because of its compatibility with detergent-solubilized hapten, involved precipitating the antibody-hapten complex with a second antibody, namely, goat antibodies against rabbit gamma-globulin. In this assay chlorodibenzodioxin from the environmental sample completes with the ^125 I-labeled hapten for binding to the antibody. Thus, the decrease in precipitation of radioactivity is a measure of the amount of (unlabeled) hapten in the test sample.
(§3) The assay buffer (hereinafter referred to as "PBS") contained, per liter, 20 mmol of potassium phosphate, 140 mmol of NaCl, and 200 mg of sodium azide. The pH was adjusted to 7.3 with NaOH. Antiserum was diluted with PBS also containing 0.1% bovine gamma globulin and 0.02% rabbit gamma globulin (w/v). Each assay tube from procedure G above received 0.2 ml of PBS, after which the tubes were held in the sonicator for 40 minutes and then cooled to room temperature. Appropriately diluted antiserum or, as control, antiserum diluant was added (0.2 ml) and, after vortex-mixing, the tubes were incubated for 40 minutes at 37°. 14000 disintegrations per minute (hereafter referred to as "DPM") or 7000 counts per minute (hereinafter referred to as "CPM", which equals DPM×counting efficiency) of [^125 I]-iodovaleramide derivative of trichlorodibenzo-p-dioxin in PBS containing 1% "Cutscum" were then added to each tube (approximately 10 μl), vortex mixed, and the tubes incubated for 1 hour at 37° followed by an additional 65 hours of incubation at 4°. Each tube next received 1.24 units of goat anti-rabbit gamma globulin in 0.2 ml of PBS containing 0.05 mM ethylenediamine tetracetic acid (hereinafter referred to as "EDTA"), was vortex mixed, and incubated for 5 hours at 4°. The tubes were centrifuged at 500×g for 20 minutes at 4°. The supernates were poured off and the tubes allowed to drain into Whatman #3 MM paper for 10 minutes. The precipitate or pellets obtained were then radioassayed for ^125 I, with 10 minute count cycles.
(§4) Standard curves were prepared using sequential two-fold dilutions of TCDD or other test compounds in benzene and evaporating the solvent as described above. Both control (blank) and TCDD-spiked tissues were extracted and processed as described above to determine general interference and recoveries. All samples were run in triplicate. […]

Row | Compound | binding by the antibodies in GC-5
1 | Clc1cc2c(cc1Cl)Oc1ccccc1O2 [2,3-Cl2 Dibenzo-p-Dioxin, 2,3-dichloro DBD] | only a portion bind 2,3-dichloro DBD

Same assay, conditions: 4 pmole

Row | Compound | Cross Reactivity, Antiserum GC-5: 100 × (inhibition of 125I binding by 4 pmole of test compound)/(inhibition by 4 pmole of 2,3,7,8-TCDD) [%]
2 | Clc1cc2c(c(Cl)c1Cl)Oc1cc(Cl)c(Cl)c(Cl)c1O2 [1,2,3,6,7,8-Cl6 Dibenzo-p-Dioxin] | 99
3 | Clc1cc2c(cc1Cl)Oc1c(cc(Cl)c(Cl)c1Cl)O2 [1,2,3,7,8-Cl5 Dibenzo-p-Dioxin] | 99
4 | Clc1cc(Cl)c2oc3cc(Cl)c(Cl)cc3c2c1 [2,3,6,8-Cl4 Dibenzofuran] | 6
5 | Clc1cc2oc3cc(Cl)c(Cl)cc3c2cc1Cl [2,3,7,8-Cl4 Dibenzofuran, 2,3,7,8-tetrachlorodibenzofuran] | 25
6 | Clc1ccc2c(c1)Oc1cc(Cl)c(Cl)cc1O2 [2,3,7-Cl3 Dibenzo-p-Dioxin] | 73
7 | Clc1cc2c(cc1Cl)Oc1ccccc1O2 [2,3-Cl2 Dibenzo-p-Dioxin, 2,3-dichloro DBD] | 44
8 | Clc1ccc2c(c1)Oc1ccc(Cl)cc1O2 [2,7-Cl2 Dibenzo-p-Dioxin] | 56
9 | Clc1ccc2c(c1)Oc1cc(Cl)ccc1O2 [2,8-Cl2 Dibenzo-p-Dioxin] | 52
10 | Clc1c(Cl)c(Cl)c2c(c1Cl)Oc1c(Cl)c(Cl)c(Cl)c(Cl)c1O2 [Octachloro Dibenzo-p-Dioxin] | 100
11 | Clc1c(Cl)c(Cl)c2c(oc3c(Cl)c(Cl)c(Cl)c(Cl)c32)c1Cl [Octachloro Dibenzofuran] | 14
12 | c1ccc2c(c1)Oc1ccccc1O2 [Unchlorinated Dibenzo-p-Dioxin, Unchlorinated dibenzo-p-dioxin] | 4
13 | c1ccc2c(c1)oc1ccccc12 [Unchlorinated Dibenzofuran] | 2.5

Same assay, conditions: GC-5 diluted such that 33% of the label was bound in the absence of competitors

Row | Compound | maximum inhibition of binding of 125I-labeled hapten [%]
14 | Clc1cc2c(cc1Cl)Oc1ccccc1O2 [2,3-Cl2 Dibenzo-p-Dioxin, 2,3-dichloro DBD] | 55

Test system: antiserum F-12
Test: Specificity / cross reactivity of the radioimmunoassay, antiserum F-12
Assay type: binding, rabbit
Details: incubation times between 2 and 65 hours; "Cutscum"

Row | Compound | ratio of inhibition by 5 ng of 2,3,7,8-DBF to that of 2,3,7,8-DBD
15 | Clc1cc2oc3cc(Cl)c(Cl)cc3c2cc1Cl [2,3,7,8-Cl4 Dibenzofuran, 2,3,7,8-tetrachlorodibenzofuran] | constant

Test system: antiserum F-12
Test: as above
Assay type: binding, rabbit
Details: not given
From the text: as §1, §2, §3, §4

Row | Compound | reactivity with F-12 (2,3,7,8-tetrachlorodibenzo-p-dioxin v 2,3,7,8-tetrachlorodibenzofuran)
16 | Clc1cc2oc3cc(Cl)c(Cl)cc3c2cc1Cl [2,3,7,8-Cl4 Dibenzofuran, 2,3,7,8-tetrachlorodibenzofuran] | approximately the same reactivity

Same assay, conditions: 4 pmole

Row | Compound | Cross Reactivity, Antiserum F-12: 100 × (inhibition of 125I binding by 4 pmole of test compound)/(inhibition by 4 pmole of 2,3,7,8-TCDD) [%]
17 | Clc1cc2c(c(Cl)c1Cl)Oc1cc(Cl)c(Cl)c(Cl)c1O2 [1,2,3,6,7,8-Cl6 Dibenzo-p-Dioxin] | 9
18 | Clc1cc2c(cc1Cl)Oc1c(cc(Cl)c(Cl)c1Cl)O2 [1,2,3,7,8-Cl5 Dibenzo-p-Dioxin] | 97
19 | Clc1cc(Cl)c2oc3cc(Cl)c(Cl)cc3c2c1 [2,3,6,8-Cl4 Dibenzofuran] | 40
20 | Clc1cc2oc3cc(Cl)c(Cl)cc3c2cc1Cl [2,3,7,8-Cl4 Dibenzofuran, 2,3,7,8-tetrachlorodibenzofuran] | 92
21 | Clc1ccc2c(c1)Oc1cc(Cl)c(Cl)cc1O2 [2,3,7-Cl3 Dibenzo-p-Dioxin] | 77
22 | Clc1cc2c(cc1Cl)Oc1ccccc1O2 [2,3-Cl2 Dibenzo-p-Dioxin, 2,3-dichloro DBD] | 16
23 | Clc1ccc2c(c1)Oc1ccc(Cl)cc1O2 [2,7-Cl2 Dibenzo-p-Dioxin] | 20
24 | Clc1ccc2c(c1)Oc1cc(Cl)ccc1O2 [2,8-Cl2 Dibenzo-p-Dioxin] | 17
25 | Clc1c(Cl)c(Cl)c2c(c1Cl)Oc1c(Cl)c(Cl)c(Cl)c(Cl)c1O2 [Octachloro Dibenzo-p-Dioxin] | 8
26 | Clc1c(Cl)c(Cl)c2c(oc3c(Cl)c(Cl)c(Cl)c(Cl)c32)c1Cl [Octachloro Dibenzofuran] | 8
27 | c1ccc2c(c1)Oc1ccccc1O2 [Unchlorinated Dibenzo-p-Dioxin, Unchlorinated dibenzo-p-dioxin] | < 1
28 | c1ccc2c(c1)oc1ccccc12 [Unchlorinated Dibenzofuran] | < 1

Same assay, conditions: if available for testing

Row | Compound | effective competition in the assay (predicted)
29 | Clc1cc2c(c(Cl)c1Cl)Oc1c(cc(Cl)c(Cl)c1Cl)O2 [1,2,3,7,8,9-hexachlorodibenzo-p-dioxin] | effective competitor

Test system: anti-chlorinated dibenzodioxin serum (antisera GC-5 and F-12)
Test: Double-antibody radioimmunoassay, both antisera (general cross reactivity, interference and sensitivity)
Assay type: binding, rabbit
Details: 5 ng level
From the text: as §1, §2, §3, §4

Row | Compound | cross reactivity of the three dichlorodibenzo-p-dioxins
30 | Clc1cc2c(cc1Cl)Oc1ccccc1O2 [2,3-Cl2 Dibenzo-p-Dioxin, 2,3-dichloro DBD] | very similar in their cross reactivity
31 | Clc1ccc2c(c1)Oc1ccc(Cl)cc1O2 [2,7-Cl2 Dibenzo-p-Dioxin] | very similar in their cross reactivity
32 | Clc1ccc2c(c1)Oc1cc(Cl)ccc1O2 [2,8-Cl2 Dibenzo-p-Dioxin] | very similar in their cross reactivity

Same assay, conditions: both antisera

Row | Compound | activity v concentration curve slope
33 | Clc1cc2c(cc1Cl)Oc1ccccc1O2 [2,3-Cl2 Dibenzo-p-Dioxin, 2,3-dichloro DBD] | steepest sloop
34 | Clc1ccc2c(c1)Oc1cc(Cl)ccc1O2 [2,8-Cl2 Dibenzo-p-Dioxin] | most shallow slope

Same assay, conditions: either antiserum

Row | Compound | cross reactivity in words
35 | c1ccc2c(c1)Oc1ccccc1O2 [Unchlorinated Dibenzo-p-Dioxin, Unchlorinated dibenzo-p-dioxin] | very little cross relativity

Test system: not given
Test: not given
Details: in vivo; cited from earlier work

Row | Compound | toxicity relative to TCDD
36 | Clc1cc2c(c(Cl)c1Cl)Oc1cc(Cl)c(Cl)c(Cl)c1O2 [1,2,3,6,7,8-Cl6 Dibenzo-p-Dioxin] | toxicities comparable to that of TCDD
37 | Clc1cc2c(c(Cl)c1Cl)Oc1c(cc(Cl)c(Cl)c1Cl)O2 [1,2,3,7,8,9-hexachlorodibenzo-p-dioxin] | toxicities comparable to that of TCDD
38 | Clc1cc2c(cc1Cl)Oc1c(cc(Cl)c(Cl)c1Cl)O2 [1,2,3,7,8-Cl5 Dibenzo-p-Dioxin] | toxicities comparable to that of TCDD
